Key:
Histamine H2 receptor = Histamine H2 receptor (Cavia porcellus, UniProt P47747)
Hrh3 protein = Hrh3 protein (Rattus norvegicus, UniProt Q5PPG3)
Nischarin = Nischarin (Rattus norvegicus, UniProt Q4G017)
Histamine H1 receptor = Histamine H1 receptor (Cavia porcellus, UniProt P31389)
Chain of Histamine H1 receptor (P31389 whole entry): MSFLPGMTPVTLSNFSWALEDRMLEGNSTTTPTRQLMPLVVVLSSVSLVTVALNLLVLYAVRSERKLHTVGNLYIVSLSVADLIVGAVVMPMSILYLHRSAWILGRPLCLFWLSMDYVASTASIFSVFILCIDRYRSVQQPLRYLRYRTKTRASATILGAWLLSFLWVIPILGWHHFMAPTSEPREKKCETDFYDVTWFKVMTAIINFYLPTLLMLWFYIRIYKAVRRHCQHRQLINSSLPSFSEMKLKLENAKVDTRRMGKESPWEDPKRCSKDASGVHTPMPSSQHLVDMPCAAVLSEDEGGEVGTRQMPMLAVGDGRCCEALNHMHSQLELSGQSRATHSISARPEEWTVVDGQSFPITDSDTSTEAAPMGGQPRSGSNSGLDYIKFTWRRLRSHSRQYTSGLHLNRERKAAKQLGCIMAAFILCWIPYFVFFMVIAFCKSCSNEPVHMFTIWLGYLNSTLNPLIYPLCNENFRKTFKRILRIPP

Chain of Hrh3 protein (Q5PPG3 whole entry): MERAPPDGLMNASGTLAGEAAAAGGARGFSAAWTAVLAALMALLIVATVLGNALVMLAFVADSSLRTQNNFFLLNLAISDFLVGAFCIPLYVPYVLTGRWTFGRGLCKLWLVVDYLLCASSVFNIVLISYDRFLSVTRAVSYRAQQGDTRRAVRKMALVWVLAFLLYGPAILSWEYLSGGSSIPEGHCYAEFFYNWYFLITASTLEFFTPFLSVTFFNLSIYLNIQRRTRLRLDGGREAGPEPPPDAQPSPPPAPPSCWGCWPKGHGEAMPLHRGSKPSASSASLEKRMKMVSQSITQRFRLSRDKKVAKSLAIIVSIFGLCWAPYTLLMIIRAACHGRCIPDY
Chain of Nischarin (Q4G017 whole entry): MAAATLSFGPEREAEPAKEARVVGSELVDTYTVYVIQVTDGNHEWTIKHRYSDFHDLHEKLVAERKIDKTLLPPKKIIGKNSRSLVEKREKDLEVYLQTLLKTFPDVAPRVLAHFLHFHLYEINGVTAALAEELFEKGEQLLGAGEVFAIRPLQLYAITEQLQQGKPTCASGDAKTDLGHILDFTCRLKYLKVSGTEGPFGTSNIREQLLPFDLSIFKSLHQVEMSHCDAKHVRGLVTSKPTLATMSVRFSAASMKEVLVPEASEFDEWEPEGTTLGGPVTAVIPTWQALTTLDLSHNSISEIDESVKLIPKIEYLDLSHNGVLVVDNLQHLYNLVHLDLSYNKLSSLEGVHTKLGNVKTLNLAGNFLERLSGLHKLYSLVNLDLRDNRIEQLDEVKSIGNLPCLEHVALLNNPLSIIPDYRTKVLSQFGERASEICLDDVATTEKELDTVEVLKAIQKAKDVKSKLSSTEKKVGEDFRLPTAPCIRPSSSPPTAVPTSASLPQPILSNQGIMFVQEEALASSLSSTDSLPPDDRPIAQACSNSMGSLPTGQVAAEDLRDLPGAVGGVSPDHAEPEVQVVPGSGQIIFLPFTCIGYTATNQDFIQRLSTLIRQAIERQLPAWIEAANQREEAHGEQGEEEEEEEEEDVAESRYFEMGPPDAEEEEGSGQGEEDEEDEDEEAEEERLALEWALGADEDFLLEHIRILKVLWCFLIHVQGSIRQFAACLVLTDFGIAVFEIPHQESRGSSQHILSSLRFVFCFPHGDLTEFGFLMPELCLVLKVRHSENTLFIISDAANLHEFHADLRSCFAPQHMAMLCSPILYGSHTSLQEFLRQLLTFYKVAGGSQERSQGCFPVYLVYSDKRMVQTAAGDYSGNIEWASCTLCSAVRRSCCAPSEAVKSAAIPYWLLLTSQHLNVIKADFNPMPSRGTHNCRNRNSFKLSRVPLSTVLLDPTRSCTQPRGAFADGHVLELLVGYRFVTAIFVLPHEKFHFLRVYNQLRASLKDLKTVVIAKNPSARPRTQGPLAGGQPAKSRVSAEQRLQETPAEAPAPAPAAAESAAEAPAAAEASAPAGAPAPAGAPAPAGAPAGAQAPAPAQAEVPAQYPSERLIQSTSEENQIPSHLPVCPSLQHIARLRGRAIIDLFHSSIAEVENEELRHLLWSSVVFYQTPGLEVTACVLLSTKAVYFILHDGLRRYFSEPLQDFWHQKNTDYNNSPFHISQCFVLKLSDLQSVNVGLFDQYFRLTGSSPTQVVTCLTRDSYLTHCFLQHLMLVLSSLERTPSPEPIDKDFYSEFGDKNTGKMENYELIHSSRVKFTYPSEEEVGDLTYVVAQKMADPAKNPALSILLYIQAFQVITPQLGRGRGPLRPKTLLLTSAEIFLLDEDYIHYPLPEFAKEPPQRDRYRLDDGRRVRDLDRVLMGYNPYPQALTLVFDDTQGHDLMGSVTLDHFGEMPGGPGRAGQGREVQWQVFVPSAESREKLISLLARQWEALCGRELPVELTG
Chain of Histamine H2 receptor (P47747 whole entry): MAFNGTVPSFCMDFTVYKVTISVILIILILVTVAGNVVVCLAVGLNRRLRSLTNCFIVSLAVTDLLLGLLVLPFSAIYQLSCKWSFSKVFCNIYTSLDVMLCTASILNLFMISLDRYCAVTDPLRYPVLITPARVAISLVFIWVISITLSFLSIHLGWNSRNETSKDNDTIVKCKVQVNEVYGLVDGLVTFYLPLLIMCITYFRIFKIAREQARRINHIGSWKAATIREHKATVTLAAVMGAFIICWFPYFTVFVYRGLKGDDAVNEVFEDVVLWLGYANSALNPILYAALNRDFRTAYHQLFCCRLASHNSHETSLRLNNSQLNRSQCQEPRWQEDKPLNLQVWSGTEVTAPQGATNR

O=C(NCc1ccc(Cc2c[nH]cn2)cc1)Nc1cc(Cl)cc(Cl)c1
Ki (Histamine H2 receptor): 1000 nM | Ki (Hrh3 protein): 1.9 nM | Ki (Nischarin): 155 nM | Ki (Histamine H1 receptor): 1000 nM

Reference: BindingDB's records for doi:10.1124/jpet.103.049254 (Schering-Plough Research Institute, 2003)
